The record followed here is patent US12679878B2, “CRF2 receptor agonists and their use in therapy” (SANOFI, priority 2020, dated 2026).

SMILES strings stand for the structures. Read-outs that look alike come from different tables or passages of the source. Starred links: 1 amine or outer side, 2 acyl side, 3 side chain; linkers in the order of their positions; H or OH if unused. Non-standard residues stand in square brackets, D forms with d. Residues, ends and D or L forms follow the SMILES beside them. Groups on a side chain read outwards from the residue. *: point of attachment. C18 diacid = O=C(O)CCCCCCCCCCCCCCCCC(=O)*; γGlu = O=C(O)[C@H](CCC(=O)[*:2])N[*:1]; AEEA = NCCOCCOCC(=O)O; Aib = CC(C)(N)C(=O)O

For one series, the target named is T1, human CRF2α receptor (Homo sapiens, UniProt Q13324).
T1 construct: expressed in transfected cells; host or cells: TeloHEAC
T1 sequence (Q13324 1-411): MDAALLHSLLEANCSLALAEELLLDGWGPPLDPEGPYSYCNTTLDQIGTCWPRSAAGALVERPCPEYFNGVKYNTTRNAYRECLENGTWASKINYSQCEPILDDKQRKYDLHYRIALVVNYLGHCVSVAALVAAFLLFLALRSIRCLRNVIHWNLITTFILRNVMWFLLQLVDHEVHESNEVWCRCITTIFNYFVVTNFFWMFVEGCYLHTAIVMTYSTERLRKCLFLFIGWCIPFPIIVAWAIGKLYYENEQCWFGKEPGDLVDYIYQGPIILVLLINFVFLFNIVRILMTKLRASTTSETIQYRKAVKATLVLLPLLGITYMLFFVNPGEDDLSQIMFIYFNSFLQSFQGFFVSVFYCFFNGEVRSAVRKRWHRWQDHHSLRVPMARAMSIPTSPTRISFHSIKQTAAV
Briefly: cAMP agonism at human CRF2 α receptor in TeloHEAC cells (Example 7). The series is classed as cell-based. The note with it: cAMP HTRF, TeloHEAC cells stably expressing human CRF2 α. The procedure, abridged:
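Thawed frozen stably transfected cells in HBSS/20 mM HEPES (0% or 0.1% HSA) plus 2 mM IBMX were exposed to compound at 2000 cells/well for 30 min at room temperature. Intracellular cAMP was read by HTRF (665/620 nm ratio) after 1 h lysis; EC50 was derived with 1000 nM urocortin 2 set as 100%.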

Series [1] can be described thus: Physical stability, dynamic light scattering assay (Example 15). The series is classed as physicochemical. The conditions noted are these: for Apparent Rh [nm] 4 weeks / Scattering Intensity (I) [%] 4 weeks: 4 weeks at 40° C. The procedure, abridged:
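DLS at 837 nm, 150° angle, +25° C; Rh, scattering intensity and mass contribution measured at 0 weeks and after 4 weeks at 40° C. Rh and D compared at 1, 5 and 10 mg/ml as kD surrogate; separate measurements at 300 μM, purity-corrected.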

The nature of series [2]: Chemical stability, purity loss by UPLC-UV after 28 days at 40° C. vs 5° C., pH 4.5 acetate buffer (Example 12). Type of series: physicochemical. The conditions noted are these: 28 days 40° C. vs 5° C.; pH 4.5, 20 mM acetate buffer; 300 μM. The procedure, abridged: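 300 μM compound (purity-corrected) in 20 mM acetate buffer, pH 4.5, stored 28 days at 5 and 40° C. Purity by UPLC-UV as compound peak area over total peak area. Value is the purity difference between 5° C. and 40° C. samples, relative to the 5° C. purity, in percent.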

Setting [3] is: 0% HSA, read-out: EC50 [nM], 0% HSA.
Setting [4] is: 0.1% HSA, read-out: EC50 [nM], 0.1% HSA.
Where [5] appears, read: Buffer A (100 mM acetate, pH 4.5).
The mark [6] stands for this setting: Buffer D (20 mM phosphate, pH 7.4).
[7] abbreviates: Buffer B (100 mM acetate, pH 4.5, 2.7 mg/ml m-cresol).
Where [8] appears, read: Buffer E (20 mM acetate, pH 4.5).

As for `CC[C@H](C)[C@H](N)C(=O)N[C@H](C(=O)N[C@@H](CC(C)C)C(=O)N[C@@H](CO)C(=O)N[C@@H](CC(C)C)C(=O)N[C@@H](CC(=O)O)C(=O)N[C@@H](C(=O)N1CCC[C@H]1C(=O)N[C@H](C(=O)N[C@@H](CCCCN)C(=O)N[C@@H](CC(C)C)C(=O)N[C@@H](CCCCNC(=O)COCCOCCNC(=O)COCCOCCNC(=O)CC[C@H](NC(=O)CCCCCCCCCCCCCCCCC(=O)O)C(=O)O)C(=O)N[C@@H](CCC(N)=O)C(=O)N[C@H](C(=O)N[C@@H](CC(C)C)C(=O)N[C@@H](CC(C)C)C(=O)N[C@@H](CCCCN)C(=O)N[C@@H](CCC(N)=O)C(=O)N[C@@H](CCC(=O)O)C(=O)N[C@@H](CCCNC(=N)N)C(=O)N[C@@H](CCC(N)=O)C(=O)N[C@@H](CCCCN)C(=O)N[C@@H](CCCCN)C(=O)NC(C)(C)C(=O)N[C@@H](CCCNC(=N)N)C(=O)N[C@@H](CCC(N)=O)C(=O)N[C@@H](CCCCN)C(=O)N[C@@H](C)C(=O)N[C@@H](CCC(=O)O)C(=O)N[C@@H](CCCCN)C(=O)N[C@@H](CC(N)=O)C(=O)N[C@@H](CCCCN)C(=O)N[C@@H](CCC(N)=O)C(=O)N[C@H](C(=O)N[C@@H](CC(C)C)C(=O)N[C@@H](C)C(=O)N[C@@H](CCC(N)=O)C(=O)N[C@H](C(N)=O)C(C)C)[C@@H](C)CC)[C@@H](C)CC)[C@@H](C)CC)C(C)C)C(C)C` [compound 136] (H-IVLSLD[dV]PIKLK([AEEA-AEEA-γGlu-C18 diacid])QILLKQERQKK[Aib]RQKAEKNKQILAQV-NH2; N-terminus assumed), the EC50 at human CRF2α receptor (setting [3]) was 0.05 nM. For the same compound, the half-maximal effective concentration (EC50) on human CRF2α receptor (setting [4]) came to 2.41 nM. In series [1] (setting [5]), the “Apparent Rh [nm] 0 weeks” value came out at 2.75 ± 0.14 nm, the “Scattering Intensity (I) [%] 0 weeks” value is recorded as 98 ± 3%, the “Apparent Rh [nm] 4 weeks” value is reported as 2.70 ± 0.28 nm and the “Scattering Intensity (I) [%] 4 weeks” value came to 97 ± 2%. Moreover, in series [1] (setting [6]), the “Apparent Rh [nm] 0 weeks” value was determined as 2.40 ± 0.15 nm, the “Scattering Intensity (I) [%] 0 weeks” value was determined as 98 ± 3%, the “Apparent Rh [nm] 4 weeks” value amounted to 2.48 ± 0.07 nm and the “Scattering Intensity (I) [%] 4 weeks” value is 98 ± 2%. Also, the “Relative purity loss [%]” value in series [2] is listed as 3.10%.
As to `CC[C@H](C)[C@H](N)C(=O)N[C@H](C(=O)N[C@@H](CC(C)C)C(=O)N[C@@H](CO)C(=O)N[C@@H](CC(C)C)C(=O)N[C@@H](CC(=O)O)C(=O)N[C@@H](C(=O)N1CCC[C@H]1C(=O)N[C@H](C(=O)N[C@@H](CCCCN)C(=O)N[C@@H](CC(C)C)C(=O)N[C@@H](CCCCNC(=O)COCCOCCNC(=O)COCCOCCNC(=O)CC[C@H](NC(=O)CCCCCCCCCCCCCCCCC(=O)O)C(=O)O)C(=O)N[C@@H](CCC(N)=O)C(=O)N[C@H](C(=O)N[C@@H](CC(C)C)C(=O)N[C@@H](CC(C)C)C(=O)N[C@@H](CCCCN)C(=O)N[C@@H](CCC(N)=O)C(=O)N[C@@H](CCC(=O)O)C(=O)N[C@@H](CCCNC(=N)N)C(=O)N[C@@H](CCC(N)=O)C(=O)N[C@@H](CCCCN)C(=O)N[C@@H](CCCCN)C(=O)N[C@@H](CCC(N)=O)C(=O)N[C@@H](CCCNC(=N)N)C(=O)N[C@@H](CCC(=O)O)C(=O)N[C@@H](CCC(N)=O)C(=O)N[C@@H](C)C(=O)N[C@@H](CCC(=O)O)C(=O)N[C@@H](CCCCN)C(=O)N[C@@H](CC(N)=O)C(=O)N[C@@H](CCCCN)C(=O)N[C@@H](CCC(N)=O)C(=O)N[C@H](C(=O)N[C@@H](CC(C)C)C(=O)N[C@@H](CCC(=O)O)C(=O)N[C@@H](CCC(N)=O)C(=O)N[C@H](C(N)=O)C(C)C)[C@@H](C)CC)[C@@H](C)CC)[C@@H](C)CC)C(C)C)C(C)C` [compound 137] (H-IVLSLD[dV]PIKLK([AEEA-AEEA-γGlu-C18 diacid])QILLKQERQKKQREQAEKNKQILEQV-NH2; N-terminus assumed), the EC50 on human CRF2α receptor (setting [3]) turned out to be 0.04 nM; at human CRF2α receptor (setting [4]) it was 1.78 nM. Also, the “Apparent Rh [nm] 0 weeks” value in series [1] (setting [5]) stood at 3.31 ± 0.15 nm; in series [1] (setting [7]), 3.50 ± 0.03 nm; in series [1] (setting [6]), 2.66 ± 0.13 nm; in series [1] (setting [8]) it was 2.38 ± 0.13 nm. Further, the “Scattering Intensity (I) [%] 0 weeks” value is given as 94 ± 1% in series [1] (setting [5]), 100 ± 0% in series [1] (setting [7]), 84 ± 6% in series [1] (setting [6]) and 98 ± 2% in series [1] (setting [8]). Moreover, the “Apparent Rh [nm] 4 weeks” value in series [1] (setting [5]) was 3.34 ± 0.25 nm; in series [1] (setting [7]), 3.60 ± 0.10 nm; in series [1] (setting [6]), 2.65 ± 0.11 nm; in series [1] (setting [8]), 2.59 ± 0.07 nm. For the same compound, the “Scattering Intensity (I) [%] 4 weeks” value in series [1] (setting [5]) amounted to 100 ± 0%; in series [1] (setting [7]), 100 ± 0%; in series [1] (setting [6]), 88 ± 9%; in series [1] (setting [8]) it was 100 ± 0%. Also, in series [2], the “Relative purity loss [%]” value is reported as 4.80%.
On to `CC[C@H](C)[C@H](N)C(=O)N[C@H](C(=O)N[C@@H](CC(C)C)C(=O)N[C@@H](CO)C(=O)N[C@@H](CC(C)C)C(=O)N[C@@H](CC(=O)O)C(=O)N[C@@H](C(=O)N1CCC[C@H]1C(=O)N[C@H](C(=O)N[C@@H](CCCCN)C(=O)N[C@@H](CC(C)C)C(=O)N[C@@H](CCCCNC(=O)COCCOCCNC(=O)COCCOCCNC(=O)CC[C@H](NC(=O)CCCCCCCCCCCCCCCCC(=O)O)C(=O)O)C(=O)N[C@@H](CCC(N)=O)C(=O)N[C@H](C(=O)N[C@@H](CC(C)C)C(=O)N[C@@H](CC(C)C)C(=O)N[C@@H](CCCCN)C(=O)N[C@@H](CCC(N)=O)C(=O)N[C@@H](CCC(=O)O)C(=O)N[C@@H](CCCNC(=N)N)C(=O)N[C@@H](CCC(N)=O)C(=O)N[C@@H](CCCCN)C(=O)N[C@@H](CCCCN)C(=O)N[C@@H](CCC(N)=O)C(=O)N[C@@H](CCCNC(=N)N)C(=O)N[C@@H](CCC(N)=O)C(=O)N[C@@H](CCC(N)=O)C(=O)N[C@@H](C)C(=O)N[C@@H](CCC(=O)O)C(=O)N[C@@H](CCCCN)C(=O)N[C@@H](CC(N)=O)C(=O)N[C@@H](CCCCN)C(=O)N[C@@H](CCC(N)=O)C(=O)N[C@H](C(=O)N[C@@H](CC(C)C)C(=O)N[C@@H](C)C(=O)N[C@@H](CCC(N)=O)C(=O)N[C@H](C(N)=O)C(C)C)[C@@H](C)CC)[C@@H](C)CC)[C@@H](C)CC)C(C)C)C(C)C` [compound 139] (H-IVLSLD[dV]PIKLK([AEEA-AEEA-γGlu-C18 diacid])QILLKQERQKKQRQQAEKNKQILAQV-NH2; N-terminus assumed), for which the EC50 on human CRF2α receptor (setting [3]) is 0.03 nM. In addition, the EC50 at human CRF2α receptor (setting [4]) turned out to be 1.31 nM. Besides, in series [1] (setting [5]), the “Apparent Rh [nm] 0 weeks” value is given as 3.04 ± 0.08 nm, the “Scattering Intensity (I) [%] 0 weeks” value stood at 98 ± 1%, the “Apparent Rh [nm] 4 weeks” value is 3.13 ± 0.22 nm and the “Scattering Intensity (I) [%] 4 weeks” value amounted to 95 ± 4%. Further, in series [1] (setting [7]), the “Apparent Rh [nm] 0 weeks” value is given as 2.94 ± 0.32 nm, the “Scattering Intensity (I) [%] 0 weeks” value was determined as 96 ± 5%, the “Apparent Rh [nm] 4 weeks” value was 3.11 ± 0.14 nm and the “Scattering Intensity (I) [%] 4 weeks” value stood at 93 ± 3%. Further, in series [1] (setting [6]), the “Apparent Rh [nm] 0 weeks” value is 2.38 ± 0.23 nm, the “Scattering Intensity (I) [%] 0 weeks” value is 96 ± 3%, the “Apparent Rh [nm] 4 weeks” value is recorded as 2.56 ± 0.29 nm and the “Scattering Intensity (I) [%] 4 weeks” value turned out to be 100 ± 0%. In series [2], the “Relative purity loss [%]” value is on record as 3.05%.
